Measurements from ChEMBL document CHEMBL3885881, “DrugMatrix”.

Species on record: Rattus norvegicus
Experiment: DrugMatrix - Regimen: Daily Repeat
Format: toxicity, organism-based, Sprague-Dawley
Parameters: regimen Daily Repeat, gender Male, age 6-8 weeks
Conditions: in vivo, po, route oral GAVAGE, vehicle 100 % WATER; for ABSOLUTE BASOPHIL / ABSOLUTE EOSINOPHIL / ABSOLUTE LYMPHOCYTE / ABSOLUTE MONOCYTE / ABSOLUTE SEGMENTED NEUTROPHIL / BASOPHIL / EOSINOPHIL / ERYTHROCYTE COUNT / HEMATOCRIT / HEMOGLOBIN / LEUKOCYTE COUNT / LYMPHOCYTE / MEAN CORPUSCULAR HEMOGLOBIN / MEAN CORPUSCULAR HEMOGLOBIN CONCENTRATION / MEAN CORPUSCULAR VOLUME / MONOCYTE / NEUTROPHIL / NUCLEATED RED BLOOD CELLS / PLATELET COUNT: tissue Blood; for ALANINE AMINOTRANSFERASE / ALBUMIN / ALKALINE PHOSPHATASE / ASPARTATE AMINOTRANSFERASE / BLOOD UREA NITROGEN / CARBON DIOXIDE / CHLORIDE / CHOLESTEROL / CREATINE PHOSPHOKINASE / CREATININE / GLUCOSE / LACTATE DEHYDROGENASE / LIPASE / PHOSPHORUS / POTASSIUM / SODIUM / TOTAL BILIRUBIN / TOTAL PROTEIN / URIC ACID: tissue Plasma
[1] = 60 mg/kg, 120 h, dose level Low, time 5 day
[2] = 1300 mg/kg, 72 h, dose level High, time 3 day
[3] = 1300 mg/kg, 120 h, dose level High, time 5 day

SMILES: CC(C)C[C@H](NC(=O)[C@@H](O)[C@H](N)Cc1ccccc1)C(=O)O [UBENIMEX]
- ABSOLUTE BASOPHIL [1]: 0 CELLS/uL
- ABSOLUTE EOSINOPHIL [1]: 0 CELLS/uL
- ABSOLUTE LYMPHOCYTE [1]: 15131 CELLS/uL
- ABSOLUTE MONOCYTE [1]: 122 CELLS/uL
- ABSOLUTE SEGMENTED NEUTROPHIL [1]: 847 CELLS/uL
- BASOPHIL [1]: 0%
- EOSINOPHIL [1]: 0%
- ERYTHROCYTE COUNT [1]: 5.87 x10E6/uL
- HEMATOCRIT [1]: 36.17%
- HEMOGLOBIN [1]: 14.03 G/DL
- LEUKOCYTE COUNT [1]: 16.1 x10E3/uL
- LYMPHOCYTE [1]: 94.33%
- MEAN CORPUSCULAR HEMOGLOBIN [1]: 23.9 pg
- MEAN CORPUSCULAR HEMOGLOBIN CONCENTRATION [1]: 38.77 G/DL
- MEAN CORPUSCULAR VOLUME [1]: 61.53 fL
- MONOCYTE [1]: 0.67%
- NEUTROPHIL [1]: 5%
- NUCLEATED RED BLOOD CELLS [1]: 0 /100WBC
- PLATELET COUNT [1]: 1187.67 x10E3/uL
- ALANINE AMINOTRANSFERASE [1]: 53.33 u/L
- ALBUMIN [1]: 4.3 G/DL
- ALKALINE PHOSPHATASE [1]: 289.33 u/L
- ASPARTATE AMINOTRANSFERASE [1]: 93.33 u/L
- BLOOD UREA NITROGEN [1]: 16.33 mg/dL
- CARBON DIOXIDE [1]: 23.67 mmol/L
- CHLORIDE [1]: 105 MEQ/L
- CHOLESTEROL [1]: 62.33 mg/dL
- CREATINE PHOSPHOKINASE [1]: 463.33 u/L
- CREATININE [1]: 0.26 mg/dL
- GLUCOSE [1]: 146.33 mg/dL
- LACTATE DEHYDROGENASE [1]: 498.67 u/L
- LIPASE [1]: 9 u/L
- PHOSPHORUS [1]: 11.2 mg/dL
- POTASSIUM [1]: 5.71 MEQ/L
- SODIUM [1]: 144.27 MEQ/L
- TOTAL BILIRUBIN [1]: 0.13 mg/dL
- TOTAL PROTEIN [1]: 6.1 G/DL
- URIC ACID [1]: 1.37 mg/dL
- ABSOLUTE BASOPHIL [2]: 0 CELLS/uL
- ABSOLUTE EOSINOPHIL [2]: 88 CELLS/uL
- ABSOLUTE LYMPHOCYTE [2]: 12244.33 CELLS/uL
- ABSOLUTE MONOCYTE [2]: 144 CELLS/uL
- ABSOLUTE SEGMENTED NEUTROPHIL [2]: 1690.33 CELLS/uL
- BASOPHIL [2]: 0%
- EOSINOPHIL [2]: 0.67%
- ERYTHROCYTE COUNT [2]: 5.72 x10E6/uL
- HEMATOCRIT [2]: 34.83%
- HEMOGLOBIN [2]: 14.07 G/DL
- LEUKOCYTE COUNT [2]: 14.17 x10E3/uL
- LYMPHOCYTE [2]: 86.33%
- MEAN CORPUSCULAR HEMOGLOBIN [2]: 24.63 pg
- MEAN CORPUSCULAR HEMOGLOBIN CONCENTRATION [2]: 40.37 G/DL
- MEAN CORPUSCULAR VOLUME [2]: 60.93 fL
- MONOCYTE [2]: 1%
- NEUTROPHIL [2]: 12%
- NUCLEATED RED BLOOD CELLS [2]: 0 /100WBC
- PLATELET COUNT [2]: 1238.33 x10E3/uL
- ALANINE AMINOTRANSFERASE [2]: 54.33 u/L
- ALBUMIN [2]: 4 G/DL
- ALKALINE PHOSPHATASE [2]: 304.33 u/L
- ASPARTATE AMINOTRANSFERASE [2]: 87 u/L
- BLOOD UREA NITROGEN [2]: 14 mg/dL
- CARBON DIOXIDE [2]: 23.67 mmol/L
- CHLORIDE [2]: 102.33 MEQ/L
- CHOLESTEROL [2]: 63.33 mg/dL
- CREATINE PHOSPHOKINASE [2]: 350.33 u/L
- CREATININE [2]: 0.18 mg/dL
- GLUCOSE [2]: 197.67 mg/dL
- LACTATE DEHYDROGENASE [2]: 237.33 u/L
- LIPASE [2]: 9 u/L
- PHOSPHORUS [2]: 10.53 mg/dL
- POTASSIUM [2]: 5.18 MEQ/L
- SODIUM [2]: 142.5 MEQ/L
- TOTAL BILIRUBIN [2]: 0.17 mg/dL
- TOTAL PROTEIN [2]: 5.7 G/DL
- URIC ACID [2]: 1.27 mg/dL
- ABSOLUTE BASOPHIL [3]: 0 CELLS/uL
- ABSOLUTE EOSINOPHIL [3]: 28.67 CELLS/uL
- ABSOLUTE LYMPHOCYTE [3]: 12669 CELLS/uL
- ABSOLUTE MONOCYTE [3]: 277.67 CELLS/uL
- ABSOLUTE SEGMENTED NEUTROPHIL [3]: 1191.33 CELLS/uL
- BASOPHIL [3]: 0%
- EOSINOPHIL [3]: 0.33%
- ERYTHROCYTE COUNT [3]: 5.82 x10E6/uL
- HEMATOCRIT [3]: 35.73%
- HEMOGLOBIN [3]: 14.33 G/DL
- LEUKOCYTE COUNT [3]: 14.17 x10E3/uL
- LYMPHOCYTE [3]: 89.67%
- MEAN CORPUSCULAR HEMOGLOBIN [3]: 24.6 pg
- MEAN CORPUSCULAR HEMOGLOBIN CONCENTRATION [3]: 40.17 G/DL
- MEAN CORPUSCULAR VOLUME [3]: 61.37 fL
- MONOCYTE [3]: 2%
- NEUTROPHIL [3]: 8%
- NUCLEATED RED BLOOD CELLS [3]: 0 /100WBC
- PLATELET COUNT [3]: 1144.33 x10E3/uL
- ALANINE AMINOTRANSFERASE [3]: 48.33 u/L
- ALBUMIN [3]: 4.23 G/DL
- ALKALINE PHOSPHATASE [3]: 308.67 u/L
- ASPARTATE AMINOTRANSFERASE [3]: 76.67 u/L
- BLOOD UREA NITROGEN [3]: 16.67 mg/dL
- CARBON DIOXIDE [3]: 25.67 mmol/L
- CHLORIDE [3]: 108.67 MEQ/L
- CHOLESTEROL [3]: 58.33 mg/dL
- CREATINE PHOSPHOKINASE [3]: 244.67 u/L
- CREATININE [3]: 0.23 mg/dL
- GLUCOSE [3]: 155.67 mg/dL
- LACTATE DEHYDROGENASE [3]: 228.67 u/L
- LIPASE [3]: 10 u/L
- PHOSPHORUS [3]: 9.27 mg/dL
- POTASSIUM [3]: 6.1 MEQ/L
- SODIUM [3]: 150.27 MEQ/L
- TOTAL BILIRUBIN [3]: 0.2 mg/dL
- TOTAL PROTEIN [3]: 6.03 G/DL
- URIC ACID [3]: 1.53 mg/dL
